From US20240299560A1, “DEOXYCHOLIC ACID-PEPTIDE CONJUGATE HAVING ANTI-OBESITY ACTIVITY AND USE THEREOF” (CAREGEN CO, LTD., priority 2020, published 2024)
Where a SMILES comes first, the peptide text is derived from it. [ ]: non-standard residue; d: D form. The star is where a group is joined. ξ: configuration not given here. Deoxycholoyl = C[C@H](CCC(=O)*)[C@H]1CC[C@H]2[C@@H]3CC[C@@H]4C[C@H](O)CC[C@]4(C)[C@H]3C[C@H](O)[C@]12C; ξF = NC(Cc1ccccc1)C(=O)O; ξL = CC(C)CC(N)C(=O)O; ξK = NCCCCC(N)C(=O)O; ξNva = CCCC(N)C(=O)O

Key:
[1] = Solubility in water, visual observation; type: physicochemical; conditions: 1 mg in 90 μL distilled water
Description: Solubilities of the deoxycholic acid-peptide conjugate prepared in Example 2 and deoxycholic acid were visually observed and compared.
Specifically, 90 μL of distilled water was added to an E. tube containing 1 mg each of the deoxycholic acid-peptide conjugate and the deoxycholic acid, and dissolution was confirmed.

white adipose tissue = experiment: Glycerol release (lipolysis) from cultured adipose tissue; type: cell-based, mice; conditions: for glycerol release amount: 1 μM, adipose tissue
Description: Neutral fat stored in adipose tissue was decomposed into fatty acids and glycerol for energy production or cell signaling. Therefore, the lipolysis effect of neutral fat accumulated in the adipose tissue was confirmed by measuring the release amount of free glycerol.
Specifically, in female mice fed with a high-fat diet (Rodent Diet with 60% Kcal Fat, Research Diets, USA), a fat pad, which was white adipose tissue, was isolated, and each 400 mg of adipose tissue per well was placed in a 12-well plate, and then cultured for 48 hours in a culture medium (DMEM media serum free) to be stabilized. During the culture, the peptide conjugate was treated at concentrations of 1 μM, 10 μM, and 100 μM, and as a positive control group, 20 nM of TNFα was treated and cultured for 48 hours to obtain a supernatant, and the amount of glycerol was measured using a glycerol colorimetric assay kit (Cayman chemical, USA).
In order to compare the lipolysis effects in the case of treating the deoxycholic acid-peptide conjugate and the case of treating the deoxycholic acid or the peptide of SEQ ID NO: 1 alone, the amount of glycerol released from the adipose tissue was measured in the same manner as in Experimental Example 3-1. A group treated with TNF-α was used as a positive control group.

3T3-L1 cells = experiment: Oil red O staining of fat accumulation in differentiated adipocytes; type: cell-based; conditions: 1 μM, 3T3-L1 adipocytes; for lipid accumulation amount: oil red O absorbance 510 nm
Description: 3T3-L1 cells as preadipocytes were purchased from the American Type Culture Collection (ATCC) and used in an experiment. 3T3-L1 was a cell line widely used to study the metabolic process of adipocytes, and as the differentiation of the cells was activated, fat accumulation in adipocytes was activated to induce obesity.
(§1) The preadipocytes 3T3-L1 were cultured in a DMEM containing 2% fetal bovine serum (FBS) under conditions of 37° C. and 5% CO2. The preadipocytes 3T3-L1 were dispensed in a 12-well plate at a density of 1×10^5 cells/well, and then further maintained for 2 days at a 100% confluency point. The preadipocytes were cultured for 2 days in a DMEM medium (hereinafter referred to as a ‘differentiation medium’) containing a differentiation ingredient (including 10 μg/ml insulin, 0.1 μM dexamethasone and 0.5 mM IBMX) and 10% FBS to induce the differentiation into adipocytes. After 48 hours of culture, the preadipocytes were cultured for 2 days in 10% FBS DMEM (hereinafter referred to as a ‘culture medium’) containing 1 μg/ml insulin. Thereafter, the culture medium was replaced with a 10% FBS DMEM culture medium every 2 days. During the induction of adipocytes differentiation, depending on a purpose of the experiment, a deoxycholic acid-peptide conjugate was treated or not in each culture medium at a concentration of 1 μM or 10 μM, and the differentiation degree of adipocytes was observed on day 7, when the differentiation was completed.
Specifically, the degree of differentiation of adipocytes induced in Preparation Example 1 was first confirmed under a microscope through oil red O staining, and for the staining degree of adipocytes, the degree of fat accumulated in the cells was calculated by measuring absorbance with a spectrophotometer at a wavelength of 510 nm. A group treated with a β3 adrenergic receptor agonist CL316243 or TNF-α was used as a positive control group.
In order to compare the fat accumulation inhibitory effects in the case of treating the deoxycholic acid-peptide conjugate and the case of treating the deoxycholic acid or the peptide of SEQ ID NO: 1 alone, the degree of differentiation of adipocytes and the degree of lipid accumulation were measured in the same manner as in Experimental Example 1-1. A group treated with TNF-α was used as a positive control group.

[2] = test system: UCP1, PRDM and Cidea genes; experiment: RT-PCR of thermogenesis-related genes of brown adipocytes in adipose tissue; type: cell-based, BL/6 mice; conditions: 1 and 10 μM, 72 hours
Description: (§2) Adipose tissue was collected from the abdomen of 9-week-old BL/6 mice, placed in a 100 mm×15 mm culture dish, and then cultured in a culture medium overnight. The adipose tissue was divided to have the same weight, transferred to a 24-well plate, and then used in the following Experimental Examples.
(§3) The adipocytes obtained in Preparation Example 1 or the adipose tissue obtained in Preparation Example 2 were treated with the deoxycholic acid-peptide conjugate of the present invention, cultured, and then recovered, and RNA was extracted with Trizol (Thermo Fisher Scientific, USA). From the extracted RNA, complementary DNA to RNA was obtained using TOPScript™ RT DryMIX (enzynomics, Korea) and then polymerase chain reaction (PCR) was performed using TOPsimple™ DryMIX-nTaq (enzynomics, Korea). Thereafter, PCR products were loaded on a 1.5% agarose gel to compare the mRNA expression levels of the growth factors.
(§4) Specifically, the adipose tissue obtained in Preparation Example 2 was treated with 1 μM and 10 μM of the deoxycholic acid-peptide conjugate and 1 μM of CL316,243 (Sigma, USA) as a positive control group and further cultured for 72 hours. After the cells were recovered and the polymerase chain reaction was performed by the method described in Experimental Example 4-1, the expression products were loaded on an agarose gel to confirm the mRNA expression levels of genes related to adipogenesis.

[3] = test system: adiponectin and leptin genes; experiment: RT-PCR of fat metabolism genes in adipocytes; type: cell-based; conditions: 1 and 10 μM, 1, 3, 6 hours
Description: as §1, with “completed. […]” for “completed.”

HSL and PLIN genes = experiment: RT-PCR of lipolysis genes in adipose tissue; type: cell-based, BL/6 mice; conditions: 1 and 10 μM, 72 hours
Description: as §2, §3
Specifically, the adipose tissue obtained in Preparation Example 2 was treated with 1 μM and 10 μM of the deoxycholic acid-peptide conjugate and 1 μM of CL316243 (Sigma, USA) as a positive control group and cultured for 72 hours. […]

[4] = test system: IL-15 gene in C2C12 cells; experiment: RT-PCR of IL-15 gene in muscle cells; type: cell-based, mouse; conditions: 1 and 10 μM; 6 hours; C2C12 myotubes
Description: as §3
Specifically, C2C12 cells, which were mouse myoblasts, were inoculated into a 6-well plate at a density of 2×10^5 cells/well, and then cultured in a DMEM (10% FBS) medium for 3 days. When the cells had grown to about 70 to 80% of the plate, the medium was replaced with a differentiation medium (DMEM, 5% horse serum) and then cultured for 3 days. Thereafter, the medium was replaced with the differentiation medium (DMEM, 2% horse serum) and cultured for 4 days to induce differentiation from myoblasts to myotubes. Then, the medium was replaced with a serum-free medium and cultured for 2 hours, and treated with 1 μM and 10 μM of the deoxycholic acid-peptide conjugate for 6 hours and cultured in an environment of 37° C. and 5% CO2. […]

AMPKa1, HSL, PGC1a genes = experiment: RT-PCR of lipolysis-related genes in adipocytes; type: cell-based; conditions: 1 and 10 μM; 24 hours; differentiated adipocytes
Description: as §1, §3
Specifically, the differentiated adipocytes obtained in Preparation Example 1 were treated with 1 μM and 10 μM of the deoxycholic acid-peptide conjugate, and then cultured for 24 hours. […]

[5] = test system: ACCα, FAS and PPARγ genes; experiment: RT-PCR of adipogenesis genes in adipose tissue; type: cell-based, BL/6 mice; conditions: 1 and 10 μM, 72 hours
Description: as §2, §3, §4

adipose tissue = experiment: H&E staining, size of adipocytes in adipose tissue; type: cell-based, BL/6 mice; conditions: vs control group
Description: as §2
In order to confirm the lipolysis effect in adipose tissue by the deoxycholic acid-peptide conjugate, H&E staining was performed on the adipose tissue obtained in Preparation Example 2 to confirm the sizes of adipocytes.
Specifically, the adipose tissue was cut, attached to a paraffin slide, and dried at 50° C. The slide attached with the dried adipose tissue was placed in Xylene 1, 2, and 3 for 5 minutes each, and the paraffin was removed. Thereafter, the slide was put into 100% ethanol for 2 minutes, and then sequentially put into 90%, 80%, and 70% ethanol to be re-hydrated. The re-hydrated slide was stained in a hematoxylin solution, washed, and then stained with Eosin Y. Thereafter, the slide was sequentially put into 90%, 80%, and 70% ethanol, and then put into Xylene 3, 2, and 1, and then mounted with a xylene-based mounting medium to prevent air bubbles from entering the tissue, and then dried. Then, the dried slide was observed under an optical microscope.

Compound	solubility in water (dissolution, visual) [1]	glycerol release amount (white adipose tissue)	lipid accumulation amount (3T3-L1 cells)	Cidea mRNA expression [2]	PRDM mRNA expression [2]	UCP1 mRNA expression [2]	adiponectin mRNA expression [3]	leptin mRNA expression [3]	HSL mRNA expression (HSL and PLIN genes)	PLIN mRNA expression (HSL and PLIN genes)	IL-15 mRNA expression [4]	AMPKa1 mRNA expression (AMPKa1, HSL, PGC1a genes)	HSL mRNA expression (AMPKa1, HSL, PGC1a genes)	PGC1a mRNA expression (AMPKa1, HSL, PGC1a genes)	ACCα mRNA expression [5]	FAS mRNA expression [5]	PPARγ mRNA expression [5]	sizes of adipocytes (adipose tissue)	amount of glycerol released (white adipose tissue; 1, 10, 100 μM, 48 hours, adipose tissue of high-fat diet mice, vs control group)	fat staining in adipocytes (oil red O) (3T3-L1 cells; day 7, positive control CL316243 or TNF-α)
C[C@H](CCC(=O)O)[C@H]1CC[C@H]2[C@@H]3CC[C@@H]4C[C@H](O)CC[C@]4(C)[C@H]3C[C@H](O)[C@]12C [deoxycholic acid, 3,12-dihydroxycholan-24-oic acid]	hardly dissolved	116%	93%	–	–	–	–	–	–	–	–	–	–	–	–	–	–	–	–	–
CCCC(NC(=O)C(CC(C)C)NC(=O)C(Cc1ccccc1)NC(=O)C(CCCCN)NC(=O)CC[C@@H](C)[C@H]1CC[C@H]2[C@@H]3CC[C@@H]4C[C@H](O)CC[C@]4(C)[C@H]3C[C@H](O)[C@]12C)C(=O)NC(CCCCN)C(=O)O (stereo partly shown) [deoxycholic acid-peptide conjugate] (Deoxycholoyl-[ξK][ξF][ξL][ξNva][ξK]-OH)	completely dissolved	175%	78%	increased	increased	increased	increased	increased	increased in a concentration dependent manner	increased in a concentration dependent manner	increased	increased	increased	increased	decreased	decreased	decreased	decreased	increased in a concentration-dependent manner	reduced at the same level as the positive control group
Lys Phe Leu Ile Lys (KFLIK) [peptide of SEQ ID NO: 1]	–	106%	89%	–	–	–	–	–	–	–	–	–	–	–	–	–	–	–	–	–
